Reference: ChEMBL document CHEMBL1201862, “PubChem BioAssay data set” (2004)
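All cell lines were grown in 96-well plates and treated with compound for 48 hours. GI50 is the concentration that inhibits growth by half.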 Activity calls are given as the source filed them. Cut-off read from the data, not from the text of the source: active = GI50 up to about 1.1 µM and inactive = higher.

Tests used:
Assay in all cases: NCI-60 cell line screen, 48 h
[1] = system: 786-0
[2] = system: A498
[3] = system: A549
[4] = system: ACHN
[5] = system: CAKI-1
[6] = system: CCRF-CEM
[7] = system: COLO 205
[8] = system: DU-145
[9] = system: EKVX
[10] = system: HCC 2998
[11] = system: HCT-116
[12] = system: HCT-15
[13] = system: HL-60
[14] = system: HOP-62
[15] = system: HOP-92
[16] = system: HT-29
[17] = system: Hs-578T
[18] = system: IGROV-1
[19] = system: KM12
[20] = system: LOX IMVI
[21] = system: M14
[22] = system: MCF7
[23] = system: MDA-MB-231
[24] = system: MDA-MB-435
[25] = system: MDA-N
[26] = system: MOLT-4
[27] = system: Malme-3M
[28] = system: NCI-H23
[29] = system: NCI-H460
[30] = system: NCI-H522
[31] = system: OVCAR-3
[32] = system: OVCAR-4
[33] = system: OVCAR-5
[34] = system: OVCAR-8
[35] = system: PC-3
[36] = system: RPMI-8226
[37] = system: SF-268
[38] = system: SF-295
[39] = system: SF-539
[40] = system: SK-MEL-28
[41] = system: SK-MEL-2
[42] = system: SK-MEL-5
[43] = system: SN12C
[44] = system: SNB-19
[45] = system: SNB-75
[46] = system: SW-620
[47] = system: T47D
[48] = system: TK-10
[49] = system: U-251
[50] = system: UACC-257
[51] = system: UACC-62
[52] = system: UO-31
[53] = system: K562
[54] = system: NCI-H226
[55] = system: NCI/ADR-RES
[56] = system: SK-OV-3
[57] = system: SR

Measured: GI50

O=C(/C=C\c1ccccc1)Oc1ccc(/C=C2\CCCCC2=O)cc1
23.3 µM: [12]
active: [26] 0.955 µM | [51] 0.1 µM
inactive: [1] 37.4 µM | [2] > 100 µM | [3] 46.6 µM | [4] 37.2 µM | [5] 24.3 µM | [6] 4.98 µM | [7] 19.9 µM | [8] > 100 µM | [9] 57.1 µM | [10] 47.3 µM | [11] 26.1 µM | [13] 14.9 µM | [14] 72.1 µM | [15] 69 µM | [16] 17.9 µM | [17] 61 µM | [18] 37.8 µM | [19] 44 µM | [20] 60.4 µM | [21] 40.6 µM | [22] 39.5 µM | [23] 41.6 µM | [24] 26.8 µM | [25] 33.3 µM | [27] 38.9 µM | [28] 45.8 µM | [29] 73.5 µM | [30] 48 µM | [31] 72.3 µM | [32] > 100 µM | [33] > 100 µM | [34] 37.8 µM | [35] 46.9 µM | [36] 21.5 µM | [37] 25.2 µM | [38] 41.2 µM | [39] 28.7 µM | [40] 2.18 µM | [41] 39.2 µM | [42] 18.9 µM | [43] 55.3 µM | [44] > 100 µM | [45] > 100 µM | [46] 40.3 µM | [47] 92.5 µM | [48] 15.1 µM | [49] 30.4 µM | [50] 16.6 µM | [52] 64.7 µM

COc1ccc(-c2coc3cc(O)ccc3c2=O)cc1 [FORMONONETIN]
inactive: [1] > 100 µM | [2] > 100 µM | [3] > 100 µM | [4] > 100 µM | [5] > 100 µM | [6] > 100 µM | [7] > 100 µM | [8] > 100 µM | [10] > 100 µM | [11] > 100 µM | [13] > 100 µM | [14] > 100 µM | [16] > 100 µM | [17] > 100 µM | [18] > 100 µM | [53] > 100 µM | [19] > 100 µM | [21] > 100 µM | [22] > 100 µM | [23] 11.3 µM | [24] > 100 µM | [25] > 100 µM | [26] > 100 µM | [27] > 100 µM | [54] > 100 µM | [28] > 100 µM | [29] > 100 µM | [30] > 100 µM | [55] > 100 µM | [31] > 100 µM | [33] > 100 µM | [34] > 100 µM | [35] > 100 µM | [37] > 100 µM | [38] > 100 µM | [39] > 100 µM | [40] > 100 µM | [41] > 100 µM | [42] > 100 µM | [56] > 100 µM | [43] > 100 µM | [44] > 100 µM | [45] > 100 µM | [57] > 100 µM | [46] > 100 µM | [47] > 100 µM | [48] > 100 µM | [49] > 100 µM | [50] > 100 µM | [51] > 100 µM | [52] 90.6 µM
> 100 µM: [12]
